Patent publication US12162859B2, “Crystalline and amorphous forms of a compound for the targeted degradation of estrogen receptor” (Arvinas Operations, Inc., priority 2020, dated 2024)
In brackets after ≈: the same amount, converted by molar mass.

Tests used:
Assay type in all cases: physicochemical
[1] = 1 week stability of Form I under storage conditions
[2] = Thermodynamic solubility of Form I in solvents and aqueous pH media; details: for solubility thermodynamic: thermodynamic from solid
[3] = Hygroscopicity (DVS water uptake at 90% RH)
[4] = Relative stability of the four identified polymorphic forms
Text: A summary of the relevant characteristics of Form I is found below in Table 10: […]

1 Week Stability, solid form ([1]; 40° C./75% RH): Form I | 1 Week Stability, solid form ([1]; 80° C.): Form I | 1 Week Stability, solid form ([1]; Ambient): Form I | Solid form recovered in thermodynamic solubility test ([2]; 1-Butanol): Form I | solubility thermodynamic ([2]; 1-butanol, organic solvent or mixture): 500 µg/mL (≈ 691 µM) | Solid form recovered in thermodynamic solubility test ([2]; Acetone): Form I (PO) | solubility thermodynamic ([2]; DCM:methanol (90:10 v/v), organic solvent or mixture): > 67000 µg/mL | Solid form recovered in thermodynamic solubility test ([2]; Dichloromethane): Form I (PO) | Solid form recovered in thermodynamic solubility test ([2]; Ethanol): Form I | Solid form recovered in thermodynamic solubility test ([2]; Methanol): Form I | solubility thermodynamic ([2]; N,N′-dimethylacetamide, organic solvent or mixture): > 100000 µg/mL | solubility thermodynamic ([2]; THF, organic solvent or mixture): > 67000 µg/mL | solubility thermodynamic ([2]; acetone, organic solvent or mixture): 4000 µg/mL (≈ 5530 µM) | solubility thermodynamic ([2]; aqueous pH medium, pH 1, simulated gastric fluid): 100 µg/mL (≈ 138 µM) | solubility thermodynamic ([2]; aqueous pH medium, pH 4, aqueous buffer): < 50 µg/mL | solubility thermodynamic ([2]; aqueous pH medium, pH 5, aqueous buffer): < 50 µg/mL | solubility thermodynamic ([2]; aqueous pH medium, pH 6, aqueous buffer): < 50 µg/mL | solubility thermodynamic ([2]; dichloromethane, organic solvent or mixture): 14800 µg/mL (≈ 20400 µM) | solubility thermodynamic ([2]; ethanol, organic solvent or mixture): 800 µg/mL (≈ 1110 µM) | solubility thermodynamic ([2]; methanol, organic solvent or mixture): 1100 µg/mL (≈ 1520 µM) | Solid form recovered in thermodynamic solubility test ([2]; pH 1): Form I | Solid form recovered in thermodynamic solubility test ([2]; pH 4): Amorphous | Solid form recovered in thermodynamic solubility test ([2]; pH 5): Form I | Solid form recovered in thermodynamic solubility test ([2]; pH 6): Form I | Hygroscopicity (water uptake at 90% RH) ([3]; 90% RH): 1.7% | hygroscopicity ([3]; at 90% RH): 1.7 wt. % | Post-DVS XRPD ([3]; solid form by XRPD after DVS): Form I | Stability relative to the other identified forms [4]: most stable
Structure (SMILES): O=C1CC[C@H](N2Cc3cc(N4CCN(CC5CCN(c6ccc([C@@H]7c8ccc(O)cc8CC[C@@H]7c7ccccc7)cc6)CC5)CC4)ccc3C2=O)C(=O)N1 [Form I, (S)-3-(5-(4-((1-(4-((1R,2S)-6-hydroxy-2-phenyl-1,2,3,4-tetrahydronaphthalen-1-yl)phenyl)piperidin-4-yl)methyl)piperazin-1-yl)-1-oxoisoindolin-2-yl)piperidine-2,6-dione]
